The values that follow come from ChEMBL document CHEMBL4477225, “Development of a cell viability assay to assess drug metabolite structure-toxicity relationships” (Bioorg Med Chem Lett, 2016).

Settings in all cases: recombinant enzyme
In data set [1] the target is T1, Cytochrome P450 3A4 (Homo sapiens, UniProt P08684). The data set is described as follows: Drug activation in human Hep3B cells assessed as human CYP3A4-mediated drug metabolism-induced cytotoxicity measured as decrease in cell viability at 45.8 uM pre-incubated with BSO for 18 hrs followed by incubation with compound for 3 hrs in presence of NADPH measured after 24 hrs in absence of compound, CYP3A4 and NADPH by cell titer-glo luminescence assay relative to BSO alone. The data set is classed as ADME, cell-based. A general note: In ATP-based viability assays light output follows the ATP content of the culture.
T1 sequence (P08684 whole entry): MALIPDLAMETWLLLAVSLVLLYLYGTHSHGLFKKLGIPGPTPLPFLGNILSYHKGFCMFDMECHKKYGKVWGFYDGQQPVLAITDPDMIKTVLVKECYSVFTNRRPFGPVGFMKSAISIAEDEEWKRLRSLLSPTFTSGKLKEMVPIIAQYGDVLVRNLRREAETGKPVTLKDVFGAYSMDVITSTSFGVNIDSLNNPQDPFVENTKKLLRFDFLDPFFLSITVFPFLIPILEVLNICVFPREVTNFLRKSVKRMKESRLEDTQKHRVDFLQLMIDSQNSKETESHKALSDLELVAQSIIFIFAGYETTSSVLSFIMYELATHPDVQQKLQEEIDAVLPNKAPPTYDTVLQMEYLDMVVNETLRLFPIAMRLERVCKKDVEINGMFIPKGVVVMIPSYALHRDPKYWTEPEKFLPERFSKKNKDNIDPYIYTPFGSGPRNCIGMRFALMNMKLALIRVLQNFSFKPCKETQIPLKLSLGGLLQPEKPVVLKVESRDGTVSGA

Data set [2] has as its target T2, Cytochrome P450 2D6 (Homo sapiens, UniProt P10635). The data set is described as follows: Drug activation in human Hep3B cells assessed as human CYP2D6-mediated drug metabolism-induced cytotoxicity measured as decrease in cell viability at 54.3 uM pre-incubated with BSO for 18 hrs followed by incubation with compound for 3 hrs in presence of NADPH measured after 24 hrs in absence of compound, CYP3A4 and NADPH by cell titer-glo luminescence assay relative to BSO alone. The data set is classed as ADME, cell-based.

The target of data set [3] is T3, Cytochrome P450 2C9 (Homo sapiens, UniProt P11712). Put plainly: Drug activation in human Hep3B cells assessed as human CYP2C9-mediated drug metabolism-induced cytotoxicity measured as decrease in cell viability at 44 uM pre-incubated with BSO for 18 hrs followed by incubation with compound for 3 hrs in presence of NADPH measured after 24 hrs in absence of compound, CYP3A4 and NADPH by cell titer-glo luminescence assay relative to BSO alone. It counts as ADME, cell-based.
T3 sequence (P11712 whole entry): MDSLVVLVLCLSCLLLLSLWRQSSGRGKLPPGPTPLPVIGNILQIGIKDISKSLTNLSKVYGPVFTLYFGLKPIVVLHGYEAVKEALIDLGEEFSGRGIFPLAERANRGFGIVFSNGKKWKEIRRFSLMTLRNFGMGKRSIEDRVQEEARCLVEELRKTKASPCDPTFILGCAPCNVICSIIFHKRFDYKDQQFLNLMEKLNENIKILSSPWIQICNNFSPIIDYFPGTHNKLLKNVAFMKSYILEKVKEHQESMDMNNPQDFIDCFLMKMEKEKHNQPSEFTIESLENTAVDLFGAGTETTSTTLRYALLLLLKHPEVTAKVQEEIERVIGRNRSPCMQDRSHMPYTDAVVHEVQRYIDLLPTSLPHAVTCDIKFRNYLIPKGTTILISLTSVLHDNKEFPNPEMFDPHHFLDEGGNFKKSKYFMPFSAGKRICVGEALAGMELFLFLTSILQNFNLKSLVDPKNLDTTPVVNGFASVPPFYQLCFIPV

Data set [4] deals with T2, Cytochrome P450 2D6. Put plainly: Drug activation in human Hep3B cells assessed as human CYP2D6-mediated drug metabolism-induced cytotoxicity measured as decrease in cell viability at 13 uM pre-incubated with BSO for 18 hrs followed by incubation with compound for 3 hrs in presence of NADPH measured after 24 hrs in absence of compound, CYP3A4 and NADPH by cell titer-glo luminescence assay relative to BSO alone. The data set is classed as ADME, cell-based.

Data set [5] concerns the target T3, Cytochrome P450 2C9. The data set is described as follows: Drug activation in human Hep3B cells assessed as human CYP2C9-mediated drug metabolism-induced cytotoxicity measured as decrease in cell viability at 9.1 uM pre-incubated with BSO for 18 hrs followed by incubation with compound for 3 hrs in presence of NADPH measured after 24 hrs in absence of compound, CYP3A4 and NADPH by cell titer-glo luminescence assay relative to BSO alone. The data set is classed as ADME, cell-based.

For data set [6], the target named is T1, Cytochrome P450 3A4. Put plainly: Drug activation in human Hep3B cells assessed as human CYP3A4-mediated drug metabolism-induced cytotoxicity measured as decrease in cell viability at 90.1 uM pre-incubated with BSO for 18 hrs followed by incubation with compound for 3 hrs in presence of NADPH measured after 24 hrs in absence of compound, CYP3A4 and NADPH by cell titer-glo luminescence assay relative to BSO alone. The data set is classed as ADME, cell-based.

Data set [7] deals with T2, Cytochrome P450 2D6. The data set is described as follows: Drug activation in human Hep3B cells assessed as human CYP2D6-mediated drug metabolism-induced cytotoxicity measured as decrease in cell viability at 113.7 uM pre-incubated with BSO for 18 hrs followed by incubation with compound for 3 hrs in presence of NADPH measured after 24 hrs in absence of compound, CYP3A4 and NADPH by cell titer-glo luminescence assay relative to BSO alone. The data set is classed as ADME, cell-based.

In data set [8] the target is T3, Cytochrome P450 2C9. The data set is described as follows: Drug activation in human Hep3B cells assessed as human CYP2C9-mediated drug metabolism-induced cytotoxicity measured as decrease in cell viability at 174.8 uM pre-incubated with BSO for 18 hrs followed by incubation with compound for 3 hrs in presence of NADPH measured after 24 hrs in absence of compound, CYP3A4 and NADPH by cell titer-glo luminescence assay relative to BSO alone. It counts as ADME, cell-based.

The target of data set [9] is T1, Cytochrome P450 3A4. The data set is described as follows: Drug activation in human Hep3B cells assessed as human CYP3A4-mediated drug metabolism-induced cytotoxicity measured as decrease in cell viability at 29.6 uM pre-incubated with BSO for 18 hrs followed by incubation with compound for 3 hrs in presence of NADPH measured after 24 hrs in absence of compound, CYP3A4 and NADPH by cell titer-glo luminescence assay relative to BSO alone. The data set is classed as ADME, cell-based.

The target of data set [10] is T2, Cytochrome P450 2D6. The data set is described as follows: Drug activation in human Hep3B cells assessed as human CYP2D6-mediated drug metabolism-induced cytotoxicity measured as decrease in cell viability at 79.2 uM pre-incubated with BSO for 18 hrs followed by incubation with compound for 3 hrs in presence of NADPH measured after 24 hrs in absence of compound, CYP3A4 and NADPH by cell titer-glo luminescence assay relative to BSO alone. The data set is classed as ADME, cell-based.

In data set [11] the target is T3, Cytochrome P450 2C9. Put plainly: Drug activation in human Hep3B cells assessed as human CYP2C9-mediated drug metabolism-induced cytotoxicity measured as decrease in cell viability at 49.7 uM pre-incubated with BSO for 18 hrs followed by incubation with compound for 3 hrs in presence of NADPH measured after 24 hrs in absence of compound, CYP3A4 and NADPH by cell titer-glo luminescence assay relative to BSO alone. It counts as ADME, cell-based.

The target of data set [12] is T1, Cytochrome P450 3A4. The data set is described as follows: Drug activation in human Hep3B cells assessed as human CYP3A4-mediated drug metabolism-induced cytotoxicity measured as decrease in cell viability at 300 uM pre-incubated with BSO for 18 hrs followed by incubation with compound for 3 hrs in presence of NADPH measured after 24 hrs in absence of compound, CYP3A4 and NADPH by cell titer-glo luminescence assay relative to BSO alone.

The target of data set [13] is T2, Cytochrome P450 2D6. The data set is described as follows: Drug activation in human Hep3B cells assessed as human CYP2D6-mediated drug metabolism-induced cytotoxicity measured as decrease in cell viability at 300 uM pre-incubated with BSO for 18 hrs followed by incubation with compound for 3 hrs in presence of NADPH measured after 24 hrs in absence of compound, CYP3A4 and NADPH by cell titer-glo luminescence assay relative to BSO alone.

In data set [14] the target is T3, Cytochrome P450 2C9. Put plainly: Drug activation in human Hep3B cells assessed as human CYP2C9-mediated drug metabolism-induced cytotoxicity measured as decrease in cell viability at 71.3 uM pre-incubated with BSO for 18 hrs followed by incubation with compound for 3 hrs in presence of NADPH measured after 24 hrs in absence of compound, CYP3A4 and NADPH by cell titer-glo luminescence assay relative to BSO alone. The data set is classed as ADME, cell-based.

T2 sequence (P10635 whole entry): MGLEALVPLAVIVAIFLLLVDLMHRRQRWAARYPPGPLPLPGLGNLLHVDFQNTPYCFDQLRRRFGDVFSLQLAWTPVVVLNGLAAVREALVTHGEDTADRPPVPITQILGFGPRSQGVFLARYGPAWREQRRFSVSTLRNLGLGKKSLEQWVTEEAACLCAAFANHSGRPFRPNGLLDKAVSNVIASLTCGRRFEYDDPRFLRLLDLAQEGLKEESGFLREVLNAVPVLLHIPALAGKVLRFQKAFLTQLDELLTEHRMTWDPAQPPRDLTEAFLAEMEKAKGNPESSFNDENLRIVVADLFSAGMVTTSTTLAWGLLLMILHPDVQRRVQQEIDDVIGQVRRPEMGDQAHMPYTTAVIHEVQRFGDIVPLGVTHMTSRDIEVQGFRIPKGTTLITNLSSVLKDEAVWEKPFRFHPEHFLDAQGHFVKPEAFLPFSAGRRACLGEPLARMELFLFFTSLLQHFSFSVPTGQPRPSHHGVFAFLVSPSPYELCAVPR

Regarding `CC(C)(C)NC(=O)[C@@H]1C[C@@H]2CCCC[C@@H]2CN1C[C@@H](O)[C@H](Cc1ccccc1)NC(=O)[C@H](CC(N)=O)NC(=O)c1ccc2ccccc2n1`, the “fold change (FC)” value turned out to be 0.8 on Cytochrome P450 3A4 [1], 0.7 on Cytochrome P450 2D6 [2] and 0.8 at Cytochrome P450 2C9 [3].

With `Fc1ccc([C@@H]2CCNC[C@H]2COc2ccc3c(c2)OCO3)cc1` [PAROXETINE], the “fold change (FC)” value on Cytochrome P450 2D6 [4] amounted to 0.4; at Cytochrome P450 2C9 [5] it was 0.6.

As to `CC(C)C(=O)Nc1ccc([N+](=O)[O-])c(C(F)(F)F)c1` [FLUTAMIDE], the “fold change (FC)” value on Cytochrome P450 3A4 [6] was 1.6; on Cytochrome P450 2D6 [7], 1.2; on Cytochrome P450 2C9 [8] it was 0.8.

On to `CC(C)(O)c1ccccc1CC[C@@H](SCC1(CC(=O)O)CC1)c1cccc(/C=C/c2ccc3ccc(Cl)cc3n2)c1` [MONTELUKAST], for which the “fold change (FC)” value at Cytochrome P450 3A4 [9] is given as 1.2; at Cytochrome P450 2D6 [10], 0.5; at Cytochrome P450 2C9 [11], 0.7.

For the compound `CC(C(=O)O)c1cccc(Oc2ccccc2)c1` (centres undefined) [FENOPROFEN], the FC at Cytochrome P450 3A4 [12] and on Cytochrome P450 2D6 [13] was 1 in each case. Besides, the “fold change (FC)” value at Cytochrome P450 2C9 [14] is 4.2.
